Patent US4652646A, “Thiazolo[3,2-a][1,2,3]triazolo[4,5-d]pyrimidine and [1,3,4]thiadiazolo[3,2-a][1,2,3]triazolo[4,5-d]pyrimidine derivatives” (Daiichi Seiyaku Co., Ltd., priority 1984, dated 1987)

Assays:
[1] = tested on: release of histamine induced by passive peritoneal anaphylaxis (PPA) reaction; experiment: Passive Peritoneal Anaphylaxis (PPA) test: inhibition of histamine release; type: in vivo, Sprague-Dawley male rats; settings: ip, 5 min; rat PPA; 1 mg/kg intraperitoneally 30 seconds before egg albumin
Procedure: (§1) 1 mg of egg albumin dissolved in 0.2 ml of saline was intramuscularly administered to each of Sprague-Dawley male rats weighing 300 to 350 g (Charles River Japan Inc.), and then 1 ml of a suspension of sterilized Bordetella pertussis (2×10^10 cells) in saline was administered intraperitoneally to the rats. After 14 days, blood was drawn from the rats to obtain an antiserum.
(§2) The test was conducted according to the method of Orange et al [Orange, R. P., Stechschulte, D. J., Austen, K. F., J. Immunol., 105, pp1087-1095 (1970)]. Sprague-Dawley male rats weighing 250 to 400 g (5 rats per group) were passively sensitized by administering 5 ml of 5-fold dilution antiserum (prepared by diluting the above antiserum with saline). 2 hours later, 5 ml of an egg albumin solution prepared by dissolving 2 mg of egg albumin in phosphate buffered saline containing 0.9 mM of calcium chloride was administered intraperitoneally to the rats. After 5 minutes, the rats were sacrificed by decapitation, and peritoneal fluid was pooled and centrifuged at 300×G at 4° C. for 10 minutes. Then, amounts of SRS-A and histamine in the supernatant were determined.
The quantitative determination of histamine was carried out according to the method of Shore et al [Shore, P. A., Bunkhalter, A. H., Cohn, V. H., J. Pharmacol. Exp. Ther., 127, pp182-186 (1959)], and the total released amount of histamine per rat (μg/rat) was calculated.
(§3) In this test, the test compound of this invention was administered as follows. 2 mg of a test compound was dissolved in 10 ml of phosphate buffered saline containing 0.9 mM of calcium chloride, an equimolar amount of sodium hydroxide to test compound, 2% of dimethyl sulfoxide and 2% of ethanol, and the solution was administered intraperitoneally to the rats at a dose of 1 mg/kg 30 seconds before the injection of egg albumin for inducing PPA. For a control group, the same solution without test compound and sodium hydroxide was administered.
(§4) The inhibitory activity on release of histamine and SRS-A by the PPA reaction in the treated group was calculated by the following formula: [formula] wherein: a represents a mean value of released amount in the control group.
(§5) b represents a mean value of released amount in the treated group.
(§6) c represents a mean value of spontaneously released amount.

[2] = tested on: release of SRS-A induced by passive peritoneal anaphylaxis (PPA) reaction; experiment: Passive Peritoneal Anaphylaxis (PPA) test: inhibition of SRS-A release; type: in vivo, Sprague-Dawley male rats; settings: rat PPA
Procedure: as §1, §2
The quantitative determination of SRS-A was carried out according to the method of Stechschulte et al [Stechschulte, D. J., Auste, K. F., Bloch, K. J., J. Exp. Med., 125, pp127-147 (1967)] using a guinea pig ileum specimen in the presence of mepyramine and atropine. The amount of SRS-A was expressed in terms of unit, i.e., one unit of SRS-A activity was defined as the concentration required to produce a contraction of guinea pig ileum equal in amplitude to that produced by 5 ng of histamine, and the total released amount of SRS-A per rat (unit/rat) was calculated.
as §3, §4, §5, §6

[3] = tested on: passive cutaneous anaphylaxis (PCA) reaction; experiment: Passive cutaneous anaphylaxis (PCA) test; type: in vivo, Sprague-Dowley male rats; settings: rat PCA, oral administration
Procedure: as §1
In this test, the antiserum described in Test Example 1 was used after it was diluted with saline so as to provide a blue spot having a diameter of about 10 mm in the following control group.
Sprague-Dowley male rats weighing about 180 g (5 rats per group) were sensitized by injecting 0.05 ml of the diluted antiserum into the shaved dorsal skin. 48 hours later, the animals were challenged with 1 ml of saline containing 5 mg of egg albumin and 5 mg of Evans blue dye administered via a tail vein. 30 minutes later, the rats were sacrificed by decapitation. The dorsal skin was removed, and the long and short axis of the each wheal was measured.
In this test, the test compound was administered as follows. 20 mg of a test compound was suspended in a 0.5% CMC aqueous solution, and the suspension was administered to each of the rats in an amount of 20 mg/kg 30 minutes before the antigen challenge. For a control group, only a 0.5% CMC solution was administered.
The inhibitory activity on the PCA reaction in the treated group was calculated by the following formula: [formula] wherein: a represents a mean value of blue spot area in the control group.
b represents a mean value of blue spot area in the treated group.

[4] = tested on: passive cutaneous anaphylaxis (PCA) reaction; experiment: Passive cutaneous anaphylaxis (PCA) test; type: in vivo, Sprague-Dowley male rats; settings: 0.5 h; rat PCA; DSCG administered at 100 mg/kg of body weight
[5] = background art; cited from earlier work

## O=C(O)c1cc(=O)c2c(OCC(O)COc3cccc4oc(C(=O)O)cc(=O)c34)cccc2o1 [DSCG, Sodium Cromoglycate, reference compound]
[1]
  inhibition in vivo at 1 mg/kg: 93%
[2]; ip, 5 min, 1 mg/kg intraperitoneally 30 seconds before egg albumin
  inhibition in vivo at 1 mg/kg: 0%
[2]
  inhibition of release of SRS-A in the PPA reaction (in words): did not inhibit the release of SRS-A in the PPA reaction
[3]
  inhibition of the PCA reaction in oral administration (in words): did not inhibit the PCA reaction in oral administration
[4]
  inhibition in vivo at 100 mg/kg: 8%
[5]
  effectiveness in oral administration (in words): not effective in oral administration
